Assays:
[1] = test system: Drosophilae containing and expressing human Abeta42 gene; experiment: Pavlov's olfactory-related instantaneous memory test in Drosophila; type: in vivo; conditions: test medicament 100 μM, 50 μL per 100 drosophilae, 7 consecutive days; FIG. 1 and FIG. 2
Source text: Drosophila has a classical learning and memory paradigm, known as Pavlov's olfactory-related instantaneous memory. During the training program, a group of about 100 drosophilae were exposed sequentially to two odors, i.e., 3-octanol and 4-methylcyclohexanol, each odor for 60 seconds, and to fresh air for 45 seconds therebetween. During exposure to the first odor, the drosophilae were electrocuted on their feet (1.5-second pulses at 3.5-second intervals, 60V), while no electrocution was exerted during exposure to the second odor. In order to detect “instantaneous memory” (also known as “learning”), drosophilae were transferred to the selection area in the T maze immediately after training and forced to choose between the two odors. The drosophilae in each T-maze arm were then captured, anesthetized, and counted. The behavior index was calculated from the distribution of drosophilae in the T maze. […] In each experiment, the age of the control group was matched with that of the experimental group.
Pharmacodynamic evaluation of the candidate compounds: Drosophilae containing and expressing human Abeta42 gene were selected as a diseased control, and drosophilae containing but not expressing human Abeta42 gene were selected as a healthy control. The day after emergence of the drosophilae, male drosophilae were selected and fed. Starting from the third day, drosophilae were fed with a test medicament (100 μM, 50 μL per 100 drosophilae) for 7 consecutive days, 4 hours each day. The above memory test was performed on the drosophilae on the tenth day.

[2] = test system: Drosophilae containing and expressing human Abeta42 gene; experiment: as above; type: in vivo; conditions: FIG. 3; with increase of dosage; compared with positive compound memantine hydrochloride
[3] = test system: Salmonella typhimurium TA100; experiment: Mini Ames experiment, strain TA100; type: cell-based
Description: (§1) Histidine auxotrophic strains of Salmonella typhimurium were cultured in a special medium with quite a low content of histidine. The strains were difficult to divide due to lack of nutrition. If a test compound has mutagenicity, a large number of cells will undergo reverse mutation, synthesizing histidine by themselves and developing into colonies visible to the naked eye. In view of the close relationship between mutagenicity and carcinogenesis of chemicals, this method has been widely used in screening carcinogens. Some chemicals need metabolic activation to induce mutagenicity. Mammalian microsomal enzyme S9 can be added into the test system to eliminate the influence of metabolic activation on generation of mutagenicity.
(§2) […] Mini Ames test with compound 50561

[4] = test system: Salmonella typhimurium TA98; experiment: Mini Ames experiment, strain TA98; type: cell-based
Description: as §1, §2

[5] = TA100, Without Metabolic Activation, control article 0.2 μg per well
[6] = TA98, Without Metabolic Activation, control article 2.0 μg per well
[7] = TA100, With Metabolic Activation, control article 0.4 μg per well
[8] = TA98, With Metabolic Activation, control article 0.4 μg per well

## O=C1C=C(OCc2cccc3ccccc23)[C@H](Cc2ccccc2)N1 [Compound 51311]
[1]
  ability to improve the learning and memory of drosophilae: best ability to improve the learning and memory of drosophilae
[2]
  dose-effect relationship to improve memory of drosophilae: eventually reaches or exceeds the level of the activity of the positive compound memantine hydrochloride

## CC(=O)Oc1ccc(COC2=CC(=O)N[C@H]2Cc2ccccc2)cc1 [Compound 51351]
[1]
  ability to improve the learning and memory of drosophilae: best ability to improve the learning and memory of drosophilae
[2]
  dose-effect relationship to improve memory of drosophilae: eventually reaches or exceeds the level of the activity of the positive compound memantine hydrochloride

## O=C1C=C(OCc2ccccc2F)[C@H](Cc2ccccc2)N1 [Compound 51121]
[1]
  ability to improve the learning and memory of drosophilae: best ability to improve the learning and memory of drosophilae
[2]
  dose-effect relationship to improve memory of drosophilae: eventually reaches or exceeds the level of the activity of the positive compound memantine hydrochloride

## O=C1C=C(OCc2cccs2)[C@H](Cc2ccccc2)N1 [Compound 51151]
[1]
  ability to improve the learning and memory of drosophilae: best ability to improve the learning and memory of drosophilae
[2]
  dose-effect relationship to improve memory of drosophilae: eventually reaches or exceeds the level of the activity of the positive compound memantine hydrochloride

## [N-]=[N+]=[N-].[Na+] [SA, reference compound]
[3]; [5]
  Mean Revertants Per Well: 195.33
  Ratio Treated/Solvent: 7.92

## COc1ccc(C[C@@H]2NC(=O)C=C2OCc2ccc(OC(C)=O)cc2)cc1 [Compound 60111]
[1]
  ability to improve the learning and memory of drosophilae: quite a good ability to improve learning and memory of drosophilae

## O=[N+]([O-])c1ccc2c(c1)Cc1ccccc1-2 [Compound 2-NF, reference compound]
[4]; [6]
  Mean Revertants Per Well: 421.00
  Ratio Treated/Solvent: 61.61

## Nc1ccc2cc3ccccc3cc2c1 [Compound 2-AA, reference compound]
[3]; [7]
  Mean Revertants Per Well: 317.67
  Ratio Treated/Solvent: 9.72
[4]; [8]
  Mean Revertants Per Well: 297.67
  Ratio Treated/Solvent: 35.72

Reference: patent US11130733B2, “4-OXO-alkylated tetramic acid compound, preparation method and use thereof” (BEIJING JOEKAI BIOTECH. LLC, priority 2017, dated 2021)
